Test [1] relates to spindle assembly checkpoint. The test can be described thus: SAC-Formation - Nocodazole-Induced Assay. The format is cell-based. Particulars: Homo sapiens; HeLa cells, nocodazole 0.1 μg/ml, 24 h, phosphorylated histone H3 on serine 10. An outline of the steps: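 HeLa cells were given nocodazole at 0.1 μg/ml final together with compounds (0.005–20 μM, 0.5% DMSO) for 24 h at 37° C. Mitotic cells were counted by phospho-histone H3 Ser10 immunostaining, with cell number from HOECHST 33342, by high-content imaging. The loss of mitotic cells was fitted with a four-parameter Hill equation.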

A further test addresses human Bub1 (Homo sapiens (Human), UniProt O43683). The test can be described thus: Bub1 kinase assay (TR-FRET). The format is biochemical. Particulars: 10 μM ATP; read-out: Bub1 avg (IC50 [mol/l]). The procedure, abridged: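 His6-tagged human Bub1 catalytic domain (aa 704-1085, insect-cell expressed, ~200 ng/ml) preincubated with compound 15 min, then reacted 60 min at 22 °C with 10 μM ATP and 1 μM biotinylated peptide (final) in pH 7.5 Tris buffer. Phosphopeptide detected by TR-FRET 665/620 ratio, normalised to no-inhibitor and no-enzyme controls.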

Drawing on patent US9682995B2, “Amino-substituted isothiazoles” (BAYER PHARMA AKTIENGESELLSCHAFT, priority 2013, dated 2017), this text covers IC50 for nine compounds.

pIC50: −log10 of the molar value.

human Bub1, sequence (O43683 704-1085): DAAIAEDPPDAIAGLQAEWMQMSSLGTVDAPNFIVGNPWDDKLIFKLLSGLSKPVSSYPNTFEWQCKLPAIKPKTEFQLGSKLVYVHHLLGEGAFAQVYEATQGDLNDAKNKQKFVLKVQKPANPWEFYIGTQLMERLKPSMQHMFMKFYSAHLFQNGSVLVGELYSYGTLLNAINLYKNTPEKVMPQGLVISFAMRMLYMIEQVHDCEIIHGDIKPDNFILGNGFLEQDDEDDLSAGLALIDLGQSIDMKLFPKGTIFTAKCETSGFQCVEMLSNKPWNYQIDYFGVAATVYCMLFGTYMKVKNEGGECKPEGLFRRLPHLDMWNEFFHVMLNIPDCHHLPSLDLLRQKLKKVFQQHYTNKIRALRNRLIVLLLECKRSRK

As for `Cc1nsc(Nc2cnc3ccccc3n2)c1C(=O)Nc1ccc(Oc2ccc(F)cc2F)nc1` [Example 113, N-[6-(2,4-Difluorophenoxy)pyridin-3-yl]-3-methyl-5-(quinoxalin-2-ylamino)-1,2-thiazole-4-carboxamide], the pIC50 in test [1] was 6.33; at human Bub1, below 4.70.
The corresponding values for `Cc1nsc(Nc2cnc3ccccc3n2)c1C(=O)Nc1ccc(OC2CCCCC2)nc1` [Example 115, N-[6-(Cyclohexyloxy)pyridin-3-yl]-3-methyl-5-(quinoxalin-2-ylamino)-1,2-thiazole-4-carboxamide] are 7.05 and below 4.70.
For `COc1ccc(Oc2ccc(NC(=O)c3c(C)nsc3Nc3cnc4ccccc4n3)cn2)cc1` [Example 116, N-[6-(4-Methoxyphenoxy)pyridin-3-yl]-3-methyl-5-(quinoxaline-2-ylamino)-1,2-thiazole-4-carboxamide] the same measures were 5.80 and below 4.70.
On to `COc1ccc(Oc2ccc(NC(=O)c3c(C)nsc3Nc3cc(C#N)ccn3)cn2)cc1` [Example 117, 5-[(4-Cyanopyridin-2-yl)amino]-N-[6-(4-methoxyphenoxy)pyridin-3-yl]-3-methyl-1,2-thiazole-4-carboxamide], for which the pIC50 in test [1] is 6.57; at human Bub1 it was below 4.70.
On to `Cc1nsc(Nc2cc(C#N)ccn2)c1C(=O)Nc1ccc(OC2CCCCC2)nc1` [Example 118, 5-[(4-Cyanopyridin-2-yl)amino]-N-[6-(cyclohexyloxy)pyridin-3-yl]-3-methyl-1,2-thiazole-4-carboxamide], for which the pIC50 in test [1] is 7.22; at human Bub1, below 4.70.
With `CCOc1ccc(NC(=O)c2c(C)nsc2Nc2cnc3ccccc3n2)cn1` [Example 119, N-(6-Ethoxypyridin-3-yl)-3-methyl-5-(quinoxalin-2-ylamino)-1,2-thiazole-4-carboxamide], the pIC50 is 7.06 in test [1] and below 4.70 at human Bub1.
For `COc1ncc(NC(=O)c2c(C)nsc2Nc2ccc(C#N)cn2)cc1C` [Example 120, 5-[(5-Cyanopyridin-2-yl)amino]-N-(6-methoxy-5-methylpyridin-3-yl)-3-methyl-1,2-thiazole-4-carboxamide], the values for the pIC50 (in test [1]; on human Bub1) were 6.57 and below 4.70, respectively.
`COc1ncc(NC(=O)c2c(C)nsc2Nc2cnc3ccccc3n2)cc1C` [Example 121, N-(6-Methoxy-5-methylpyridin-3-yl)-3-methyl-5-(quinoxalin-2-ylamino)-1,2-thiazole-4-carboxamide]: the results for the pIC50 (in test [1]; on human Bub1) were 6.89 and below 4.70, respectively.
For `Cc1nsc(Nc2cnc3ccccc3n2)c1C(=O)Nc1ccc(OC(C)C)nc1` [Example 122, N-(6-Isopropoxypyridin-3-yl)-3-methyl-5-(quinoxalin-2-ylamino)-1,2-thiazole-4-carboxamide] the same measures were 7.23 and below 4.70.
